The series can be described thus: Powder testing of final blends for compression (flow and compression properties). The format is physicochemical. Here is the method: The powder properties of the final blends for compression were evaluated. During compression, excellent powder flow through the hopper was visually observed. The following Table presents the results of powder testing.

For `CC12CC3CC(C)(C1)CC(N)(C3)C2` [memantine, 1-amino-3,5-dimethyladamantane], the “flow and compression properties (in words)” value was “poor flow properties”. Further, the “Flowability Index” value (powder) was 23.5.

Values taken from patent publication US8039009B2, “Modified release formulations of memantine oral dosage forms” (priority 2004, dated 2011).
